Several values for one entry are separate records, joined by “and”; a condition that tells them apart may be missing. Equal entries are not always repeated.
Experiments:
Assay type in all cases: cell-based, human
MKN45 cells [1] = test: Seahorse XF OCR, ECAR and energy map; set-up: Basal resp. / Maximal resp. / SRC: unit not given here; conditions: MKN45, IC50 24 h
Description: (§1) Oxygen Consumption Rate (OCR), Extra Cellular Acidification Rate (ECAR) and Energy map measurements. Cells were plated in XF HS Miniplates (Seahorse Bioscience) at a cellular density of 1 × 10^4 cells/well and incubated overnight. […] After an OCR baseline measurement, the minimum oxygen consumption was determined by adding 1.5 µM oligomycin (O) and the maximal respiration rate was assessed by adding 1 µM carbonyl cyanide p-trifluoro methoxyphenylhydrazone (FCCP, F). At the end of the experiment, the non-mitochondrial oxygen consumption was evaluated by adding both 0.5 µM rotenone (R) and antimycin (A). Experiments were run in a XF HS Mini analyzer (Seahorse Agilent), and raw data were normalized to total protein using a BCA protein assay kit (Cat. no. 23225, Thermo Scientific).

PANC1 cells [2] = test: Seahorse XF OCR, ECAR and energy map; set-up: Basal resp. / Maximal resp. / SRC: unit not given here
Description: as §1

AGS cells [3] = test: ATP determination assay (bioluminescence); conditions: replicates
Description: (§2) ATP determination assay. […] The analysis was performed using the ATP Bioluminescense Assay Kit CLS II (Cat. no. 11699695001, Roche) according to the manufacturer’s instructions. […] Data were normalized to total protein using the BCA protein assay kit (Thermo Scientific).

MKN45 cells [4] = test: ATP determination assay (bioluminescence); conditions: replicates
Description: as §2

PANC1 cells [5] = test: ATP determination assay (bioluminescence); conditions: replicates
Description: as §2

AGS cells [6] = test: Lactate production assay; conditions: replicates
Description: (§3) Lactate production assay. […] Proteins were removed from 50 μL of the medium by adding 100 μL of 8% Percloric Acid and 40% EtOH at 4 °C, and centrifuging at 2 × 10^4 g for 10 min at 4 °C. The supernatants were then frozen until the lactate in 15 μL of each sample, or lactate standard, was measured mixed with 150 μl of assay buffer (0.5 M glycine [pH 9.5], 0.2 M Hydrazine, 3.4 mM EDTA), 100 μl of H20, 5 μL of 1100 U/mL LDH (Roche) and 30 μL of 15 mM NAD + . NADH production was evaluated by measuring absorbance at 340 nm in a multiplate reader (Synergy HT, Biotek) and it was proportional to the lactic acid concentration in the sample after a 2 h incubation. The lactate concentration was normalized to the total amount of protein measured with the Micro BCA Protein Assay Kit (Thermo Scientific). Assays were performed in triplicate in three independent experiments.

MKN45 cells [7] = test: Lactate production assay; conditions: replicates
Description: as §3

PANC1 cells [8] = test: Lactate production assay; conditions: replicates
Description: as §3

PANC1 cells [9] = test: ROS detection by confocal microscopy (DHE, MitoSox); conditions: PANC1, 1 h treatment; H2O2 200 µM, CDDP 10 µM, I5 20 µM, I6 20 µM
Description: Tumor cells were seeded at a density of 3 × 10^5 cells in 15 µm 8-well IBIDI plates and incubated overnight. […] Subsequently, cells were stained with 10 μM of dihydroethidium (DHE, cytosolic O2^·- probe, Sigma-Aldrich) or with 5 μM of Mitosox (mitochondrial O2^·- probe, Sigma-Aldrich) for 15–30 min[79] and then visualized on a confocal microscope (Confocal LSM 710 Zeiss, Biomedical Research Institute Alberto Sols, IIBm-CSIC-UAM, Madrid, Spain). The image analysis was realized using the software program Image J.

In the case of CC(C)[NH][Pt@SP1]([I])([I])[NH]C(C)C [I6, cis-[PtI2(isopropylamine)2]], the SRC (MKN45 cells [1]) is reported as 111.45 and 165.66 and 168.61, the “effect on ECAR” value (MKN45 cells [1]) is reported as “no apparent effect” and the OCR (MKN45 cells [1]; time 1.53 min (I5) / 1.53 min (I6)) is reported as 147.857 pmoles/min/µg protein and 218.375 pmoles/min/µg protein and 227.071 pmoles/min/µg protein. For the same compound, the OCR (MKN45 cells [1]; time 8.04 min (I5) / 8.03 min (I6)) was 138.707 pmoles/min/µg protein and 201.479 pmoles/min/µg protein and 205.427 pmoles/min/µg protein, the OCR (MKN45 cells [1]; time 14.51 min (I5) / 14.5 min (I6)) was 135.932 pmoles/min/µg protein and 195.066 pmoles/min/µg protein and 199.064 pmoles/min/µg protein and the OCR (MKN45 cells [1]; time 21.06 min (I5) / 21.09 min (I6)) was 69.6082 pmoles/min/µg protein and 82.0209 pmoles/min/µg protein and 78.1047 pmoles/min/µg protein. For the same compound, the OCR (MKN45 cells [1]; time 27.57 min (I5) / 27.59 min (I6)) was 57.4221 pmoles/min/µg protein and 74.9291 pmoles/min/µg protein and 73.3602 pmoles/min/µg protein, the OCR (MKN45 cells [1]; time 34.08 min (I5) / 34.07 min (I6)) was 57.8854 pmoles/min/µg protein and 73.9423 pmoles/min/µg protein and 73.7207 pmoles/min/µg protein and the OCR (MKN45 cells [1]; time 40.66 min (I5) / 40.62 min (I6)) was 219.523 pmoles/min/µg protein and 319.315 pmoles/min/µg protein and 325.525 pmoles/min/µg protein. The OCR (MKN45 cells [1]; time 53.68 min (I5) / 53.58 min (I6)) was 193.975 pmoles/min/µg protein and 265.77 pmoles/min/µg protein and 274.483 pmoles/min/µg protein, the OCR (MKN45 cells [1]; time 60.27 min (I5) / 60.14 min (I6)) was 39.9791 pmoles/min/µg protein and 45.1028 pmoles/min/µg protein and 42.2414 pmoles/min/µg protein and the OCR (MKN45 cells [1]; time 66.75 min (I5) / 66.62 min (I6)) was 39.1246 pmoles/min/µg protein and 45.4375 pmoles/min/µg protein and 44.5027 pmoles/min/µg protein. The OCR (MKN45 cells [1]; time 73.23 min (I5) / 73.1 min (I6)) was 38.1003 pmoles/min/µg protein and 46.0211 pmoles/min/µg protein and 46.1344 pmoles/min/µg protein, the “ECAR, Mean (energy map)” value (PANC1 cells [2]; PANC1 (with I5)) was 7.18 mpH/min/absorbance and the “OCR, Mean (energy map)” value (PANC1 cells [2]; PANC1 (with I5)) was 8.75 pmol/min/absorbance. The “ECAR (energy map)” value (PANC1 cells [2]; PANC1 (with I6)) was 32.52 mpH/min/absorbance, the “ECAR, Mean (energy map)” value (PANC1 cells [2]; PANC1 (with I6)) was 146.969 mpH/min/absorbance and the “OCR (energy map)” value (PANC1 cells [2]; PANC1 (with I6)) was 147 pmol/min/absorbance. For the same compound, the “OCR, Mean (energy map)” value (PANC1 cells [2]; PANC1 (with I6)) was 32.5207 pmol/min/absorbance, the ATP-product. coupled resp. (PANC1 cells [2]; PANC1, IC50 24 h) was 76.46 and 74.62 and 73.2 and the Basal resp. (PANC1 cells [2]; PANC1, IC50 24 h) was 102.88 and 97.93 and 95.39. For the same compound, the Maximal resp. (PANC1 cells [2]; PANC1, IC50 24 h) was 174.57 and 152.73 and 164.59, the SRC (PANC1 cells [2]; PANC1, IC50 24 h) was 71.69 and 54.8 and 69.2 and the “effect on ECAR” value (PANC1 cells [2]; PANC1, IC50 24 h) was “no apparent effect”. The OCR (PANC1 cells [2]; PANC1, IC50 24 h, time 1.53 min (I5) / 1.53 min (I6)) was 159.562 pmoles/min/µg protein and 146.086 pmoles/min/µg protein and 145.09 pmoles/min/µg protein, the OCR (PANC1 cells [2]; PANC1, IC50 24 h, time 8.03 min (I5) / 8.01 min (I6)) was 147.434 pmoles/min/µg protein and 135.357 pmoles/min/µg protein and 133.103 pmoles/min/µg protein and the OCR (PANC1 cells [2]; PANC1, IC50 24 h, time 14.5 min (I5) / 14.5 min (I6)) was 143.038 pmoles/min/µg protein and 132.495 pmoles/min/µg protein and 129.978 pmoles/min/µg protein. The OCR (PANC1 cells [2]; PANC1, IC50 24 h, time 21.08 min (I5) / 21.07 min (I6)) was 66.5745 pmoles/min/µg protein and 57.8765 pmoles/min/µg protein and 56.7739 pmoles/min/µg protein, the OCR (PANC1 cells [2]; PANC1, IC50 24 h, time 27.58 min (I5) / 27.55 min (I6)) was 66.0035 pmoles/min/µg protein and 58.3571 pmoles/min/µg protein and 57.0179 pmoles/min/µg protein and the OCR (PANC1 cells [2]; PANC1, IC50 24 h, time 34.08 min (I5) / 34.04 min (I6)) was 69.58 pmoles/min/µg protein and 62.2166 pmoles/min/µg protein and 61.4483 pmoles/min/µg protein. The OCR (PANC1 cells [2]; PANC1, IC50 24 h, time 40.66 min (I5) / 40.6 min (I6)) was 214.725 pmoles/min/µg protein and 187.294 pmoles/min/µg protein and 199.178 pmoles/min/µg protein, the OCR (PANC1 cells [2]; PANC1, IC50 24 h, time 47.17 min (I5) / 47.09 min (I6)) was 200.494 pmoles/min/µg protein and 175.489 pmoles/min/µg protein and 184.522 pmoles/min/µg protein and the OCR (PANC1 cells [2]; PANC1, IC50 24 h, time 53.68 min (I5) / 53.58 min (I6)) was 196.779 pmoles/min/µg protein and 170.973 pmoles/min/µg protein and 177.854 pmoles/min/µg protein. The OCR (PANC1 cells [2]; PANC1, IC50 24 h, time 60.22 min (I5) / 60.14 min (I6)) was 40.9467 pmoles/min/µg protein and 34.6667 pmoles/min/µg protein and 34.4666 pmoles/min/µg protein, the OCR (PANC1 cells [2]; PANC1, IC50 24 h, time 66.71 min (I5) / 66.63 min (I6)) was 41.5272 pmoles/min/µg protein and 35.8152 pmoles/min/µg protein and 35.5577 pmoles/min/µg protein and the OCR (PANC1 cells [2]; PANC1, IC50 24 h, time 73.19 min (I5) / 73.15 min (I6)) was 40.1567 pmoles/min/µg protein and 34.5626 pmoles/min/µg protein and 34.5904 pmoles/min/µg protein. The ATP assay (AGS cells [3]) was 0.001 nmoles ATP/mg prot and 0.003 nmoles ATP/mg prot and 0.01 nmoles ATP/mg prot and 0 nmoles ATP/mg prot and 0.005 nmoles ATP/mg prot and 0.002 nmoles ATP/mg prot, the ATP assay (MKN45 cells [4]) was 5246 nmoles ATP/mg prot and 3320.9 nmoles ATP/mg prot and 18883.3 nmoles ATP/mg prot and 23272 nmoles ATP/mg prot and 3325.73 nmoles ATP/mg prot and 3863.84 nmoles ATP/mg prot and 4434 nmoles ATP/mg prot and 3684.47 nmoles ATP/mg prot and 4201.47 nmoles ATP/mg prot and the ATP assay (PANC1 cells [5]) was 7880 nmoles ATP/mg prot and 13332.3 nmoles ATP/mg prot and 3956 nmoles ATP/mg prot and 3277.42 nmoles ATP/mg prot and 6180.37 nmoles ATP/mg prot and 5189.49 nmoles ATP/mg prot and 6520 nmoles ATP/mg prot and 7744.41 nmoles ATP/mg prot and 6743.81 nmoles ATP/mg prot. The lactate assay (AGS cells [6]) was 3.22 Lactate mM/mg prot and 1.52 Lactate mM/mg prot and 3.74 Lactate mM/mg prot and 3.2668 Lactate mM/mg prot and 2.67 Lactate mM/mg prot and 5.511 Lactate mM/mg prot and 0.01 Lactate mM/mg prot and 0.02 Lactate mM/mg prot and 0.03 Lactate mM/mg prot, the lactate assay (MKN45 cells [7]) was 3.98 Lactate mM/mg prot and 8.05 Lactate mM/mg prot and 7.53 Lactate mM/mg prot and 3.819 Lactate mM/mg prot and 1.91 Lactate mM/mg prot and 4.092 Lactate mM/mg prot and 2.56 Lactate mM/mg prot and 2.5 Lactate mM/mg prot and 2.54 Lactate mM/mg prot and the lactate assay (PANC1 cells [8]) was 11.33 Lactate mM/mg prot and 12.9 Lactate mM/mg prot and 10.14 Lactate mM/mg prot and 5.296 Lactate mM/mg prot and 5.829 Lactate mM/mg prot and 4.94 Lactate mM/mg prot and 4.32 Lactate mM/mg prot and 4.21 Lactate mM/mg prot and 4.26 Lactate mM/mg prot. The “DHE fluorescence intensity (per cell), cytosolic O2•−” value (PANC1 cells [9]) was 98.4842 and 86.3637 and 85.797 and 82.1548 and 76.0203 and 75.3191 and the “Mitosox fluorescence intensity (per cell), mitochondrial O2•−” value (PANC1 cells [9]) was 91.9093 and 80.7891 and 70.3911 and 69.2294 and 66.6051 and 57.9644.

Reference: PMC10959927, “Platinum iodido drugs show potential anti-tumor activity, affecting cancer cell metabolism and inducing ROS and senescence in gastrointestinal cancer cells” (Communications Biology, 2024)
